Each structure is given as a SMILES string.

The first series has as its target T1, aminopeptidase B (Rattus norvegicus, UniProt O09175).
T1 construct: an aminopeptidase B solution purified by the same enzyme purification process as in the process by Hopsu et al; from tissue
T1 sequence (O09175 1-650): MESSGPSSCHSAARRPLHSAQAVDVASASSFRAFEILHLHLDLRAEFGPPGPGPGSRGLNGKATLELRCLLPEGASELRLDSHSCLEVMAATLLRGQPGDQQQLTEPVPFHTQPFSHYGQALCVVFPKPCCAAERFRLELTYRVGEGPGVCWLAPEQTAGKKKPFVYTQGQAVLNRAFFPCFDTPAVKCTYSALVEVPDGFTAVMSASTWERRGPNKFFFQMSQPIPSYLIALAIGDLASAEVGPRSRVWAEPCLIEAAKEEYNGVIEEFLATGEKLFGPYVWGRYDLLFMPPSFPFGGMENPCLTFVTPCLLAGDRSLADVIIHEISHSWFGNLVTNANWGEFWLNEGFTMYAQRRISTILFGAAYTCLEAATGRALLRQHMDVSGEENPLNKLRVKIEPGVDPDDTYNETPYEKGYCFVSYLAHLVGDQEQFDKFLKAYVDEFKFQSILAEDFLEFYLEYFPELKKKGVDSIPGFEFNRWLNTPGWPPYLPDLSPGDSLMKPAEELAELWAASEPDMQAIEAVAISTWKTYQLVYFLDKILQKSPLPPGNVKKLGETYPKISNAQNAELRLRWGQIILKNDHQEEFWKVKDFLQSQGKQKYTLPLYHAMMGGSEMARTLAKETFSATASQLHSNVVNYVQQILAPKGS
Test: not given
Conditions: U.S. Pat. No. 4,029,547; cited from earlier work.
As to `CC(C)C[C@H](NC(=O)[C@@H](O)[C@H](N)Cc1ccccc1)C(=O)O` [bestatin, (2S,3R)-3-amino-2-hydroxy-4-phenylbutanoyl-(S)-leucine], the “aminopeptidase B inhibitor” value was “aminopeptidase B inhibitor”.

System in another series: not given
Test: not given
Conditions: isolated from culture filtrates of Streptomyces olivoreticuli; cited from earlier work.
On to `CC(C)C[C@H](NC(=O)[C@@H](O)[C@H](N)Cc1ccccc1)C(=O)O` [bestatin, (2S,3R)-3-amino-2-hydroxy-4-phenylbutanoyl-(S)-leucine], for which the toxicity entry is given as “least toxic”.

The target in another series is T1, aminopeptidase B. The series is described as follows: Inhibitory Activity to Aminopeptidase B. In kind it is biochemical. The conditions noted are these: pH 7.0, 37° C., 30 minutes, substrate arginine-β-naphthylamide; read-out: IC50 (50% inhibitory ratio) (converted). Here is the method: Measurement for the inhibitory activity to aminopeptisase B was conducted by the method reported by Hopsu et al. while somewhat modifying the process [V. K. Hopsu, K. K. Makinen, G. G. Glenner; Archives of Biochemistry and Biophysics, 114, 557 (1966)].
A mixed solution (pH 7.0) prepared by adding 1.0 ml of a 0.1 M tris-hydrochloric acid buffer solution and 0.7 ml of a solution containing a test specimen to 0.3 ml of 0.1 mM arginine-β-naphthylamide was heated at 37° C. for 4 minutes. Thereafter, 0.2 ml of an aminopeptidase B solution purified by the same enzyme purification process as in the process by Hopsu et al. using Sephadex G-100 (registered Trademark) was added and reacted at 37° C. for 30 minutes. Then, 0.6 ml of a 1.0 M acetic acid buffer solution (pH 4.2) containing Garnet GBC (o-aminoazotoluenediazonium salt) at 1.0 mg/ml concentration and containing Tween 20 (registered trademark) at 1.0% concentration was further added and left for 15 minutes at room temperature, after which absorption ratio (a) at 530 nm was measured. The absorption ratio (b) for the blind solution using only the buffer solution containing no specimen was simultaneously mesured, and the inhibitory ratio to aminopeptidase B was calculated as (b-a)/b×100.
Inhibitory ratios for each of the specimens at several concentrations were determined by the above test method, from which 50% inhibitory ratios (IC50) were deduced.
`COc1ccc(C[C@@H](N)[C@H](O)C(=O)N[C@@H](CC(C)C)C(=O)O)cc1` [No. 1, (2S,3R)-3-amino-2-hydroxy-4-(4-methoxyphenyl)butanoyl-(S)-leucine]: the IC50 was 17.7 nM.

Regarding `CC(C)C[C@H](NC(=O)C(O)C(N)Cc1cccc2ccccc12)C(=O)O` (stereo partly drawn) [No. 4, Threo-(2RS)-3-amino-2-hydroxy-4-(1-naphthyl)butanoyl-(S)-leucine], the IC50 was 4180 nM.

In the case of `CC(C)C[C@H](NC(=O)C(O)C(N)Cc1ccc(C(C)C)cc1)C(=O)O` (stereo partly drawn) [compound 7], the IC50 was 342 nM.

Take `CC(C)C[C@H](NC(=O)C(O)C(N)Cc1ccc2ccccc2c1)C(=O)O` (stereo partly drawn) [No. 5, Threo-(2RS)-3-amino-2-hydroxy-4-(2-naphthyl)butanoyl-(S)-leucine]: the IC50 is 279 nM. The same measure, in the same setting: for `CC(C)C[C@H](NC(=O)C(O)C(N)Cc1ccc(-c2ccccc2)cc1)C(=O)O` (stereo partly drawn) [No. 6, Threo-(2RS)-3-amino-2-hydroxy-4-(4-phenylphenyl)butanoyl-(S)-leucine] the value was 9360 nM; for `COc1cccc(CC(N)C(O)C(=O)N[C@@H](CC(C)C)C(=O)O)c1` (stereo partly drawn) [No. 3, Threo-(2RS)-3-amino-2-hydroxy-4-(3-methoxyphenyl)butanoyl-(S)-leucine], 118 nM.

In the case of `CC[C@H](C)[C@H](NC(=O)C(O)C(N)Cc1ccc2ccccc2c1)C(=O)O` (stereo partly drawn) [No. 13, Threo-(2RS)-3-amino-2-hydroxy-4-(2-naphthyl)butanoyl-(S)-isoleucine], the IC50 is 83.7 nM. For `CC(C)C[C@H](NC(=O)C(O)C(N)Cc1ccc(F)cc1)C(=O)O` (stereo partly drawn) [No. 12, Threo-(2RS)-3-amino-2-hydroxy-4-(4-fluorophenyl)butanoyl-(S)-leucine], the IC50 is 91.9 nM.

`CC(C)Cc1ccc(CC(N)C(O)C(=O)N[C@@H](CC(C)C)C(=O)O)cc1` (stereo partly drawn) [No. 8, Threo-(2RS)-3-amino-2-hydroxy-4-(4-iso-butylphenyl)butanoyl-(S)-leucine]: the IC50 is 7680 nM. `CC(C)C[C@H](NC(=O)C(O)C(N)Cc1ccccc1O)C(=O)O` (stereo partly drawn) [No. 15, Threo-(2RS)-3-amino-2-hydroxy-4-(2-hydroxyphenyl)butanoyl-(S)-leucine]: the IC50 was 1630 nM. Regarding `COc1ccccc1CC(N)C(O)C(=O)N[C@@H](CC(C)C)C(=O)O` (stereo partly drawn) [No. 2, Threo-(2RS)-3-amino-2-hydroxy-4-(2-methoxyphenyl)butanoyl-(S)-leucine], the IC50 is 8570 nM. Take `CC(C)C[C@H](NC(=O)C(O)C(N)Cc1ccc(OC(C)C)cc1)C(=O)O` (stereo partly drawn) [No. 10, Threo-(2RS)-3-amino-2-hydroxy-4-(4-iso-propoxyphenyl)butanoyl-(S)-leucine]: the IC50 was 18600 nM. On to `COc1ccc(C[C@@H](N)[C@H](O)C(=O)N[C@H](C(=O)O)C(C)C)cc1` [No. 14, (2S,3R)-3-amino-2-hydroxy-4-(4-methoxyphenyl)butanoyl-(S)-valine], for which the IC50 was 216 nM. With `CC(C)COc1ccc(CC(N)C(O)C(=O)N[C@@H](CC(C)C)C(=O)O)cc1` (stereo partly drawn) [No. 11, Threo-(2RS)-3-amino-2-hydroxy-4-(4-iso-butoxyphenyl)butanoyl-(S)-leucine], the IC50 is 11800 nM. Turning to `CC(C)C[C@H](NC(=O)C(O)C(N)Cc1ccc(O)c(O)c1)C(=O)O` (stereo partly drawn) [No. 9, Threo-(2RS)-3-amino-2-hydroxy-4-(3,4-dihydroxyphenyl)butanoyl-(S)-leucine], the IC50 was 5290 nM. The same measure, in the same setting: for `CC(C)C[C@H](NC(=O)C(O)C(N)Cc1cccc(O)c1)C(=O)O` (stereo partly drawn) [No. 16, Threo-(2RS)-3-amino-2-hydroxy-4-(3-hydroxyphenyl)butanoyl-(S)-leucine] the value was 277 nM.

A further series concerns immunoresponse.
Test: not given
Conditions: Japanese Patent Laid-Open Publication No. 117435/1977; cited from earlier work.
For the compound `CC(C)C[C@H](NC(=O)[C@@H](O)[C@H](N)Cc1ccccc1)C(=O)O` [bestatin, (2S,3R)-3-amino-2-hydroxy-4-phenylbutanoyl-(S)-leucine], the “effect to immunoresponse such as delayed hypersthesia” value is on record as “increasing effect to immunoresponse such as delayed hypersthesia” and the “in vivo defense mechanism” value was “activate in vivo defense mechanism”.

Another series concerns cancer.
Test: not given
Conditions: Japanese Patent Laid-Open Publication No. 117435/1977; cited from earlier work.
For `CC(C)C[C@H](NC(=O)[C@@H](O)[C@H](N)Cc1ccccc1)C(=O)O` [bestatin, (2S,3R)-3-amino-2-hydroxy-4-phenylbutanoyl-(S)-leucine], the effects for cancer entry is given as “inhibitive effects for cancer”.

These data come from patent publication US4281180A, “Process for producing threo-3-amino-2-hydroxybutanoyl-aminoacetic acids, as well as novel intermediated therefor and process for producing them” (Nippon Kayaku Kabushiki Kaisha, priority 1978, dated 1981).
